# Laboratory results taken from patent US20240307386A1 (priority 2018, published 2024).
# What was measured:
# [1] = test system: 5-HT2 receptor; test: DOI-induced head twitch model in mice; type: in vivo; conditions: p.o., 0.5 hr before s.c. DOI
# [2] = test system: AMPA receptor currents in mPFC neurons; test: AMPA-induced currents in rat mPFC slices, whole-cell patch clamp; type: cell-based
# Text: (§1) Combined administration of the antipsychotic, olanzapine, and the SSRI, fluoxetine, similarly induces rapid antidepressant activity in humans and animals (Tohen et al., 2010); likewise, combined application of olanzapine and fluoxetine is required to induce AMPA receptor currents in vitro.
# [3] = target: D2 (Homo sapiens (Human), UniProt P14416)
# [4] = test system: mTOR (at Serine 2448); test: Phosphorylation of mTOR pathway proteins in rat PFC: mTOR; type: in vivo; conditions: one i.p. injection; ketamine 30 mg/kg, Formula A 3 mg/kg
# [5] = test system: AKT (at Threonine 308); test: Phosphorylation of mTOR pathway proteins in rat PFC: AKT; type: in vivo; conditions: 1 hour and 24 hours after one i.p. injection; ketamine 30 mg/kg, Formula A 3 mg/kg
# [6] = test system: P70s6 kinase (at Threonine 389); test: Phosphorylation of mTOR pathway proteins in rat PFC: P70s6 kinase; type: in vivo; conditions: over 24 hours after one i.p. injection; ketamine 30 mg/kg, Formula A 3 mg/kg
# [7] = test system: mTORC1 signaling pathway; test: mTORC1 signaling pathway in mPFC of adult rats, dose range study; type: in vivo, rat; conditions: Formula A 1 to 8 mg/kg i.p.; ketamine 30 mg/kg; 60 min, 90 min or 24 hours
# [8] = Clinical studies in patients with acute exacerbated schizophrenia; type: in vivo, human; conditions: 60 mg P.O. once daily, up to 28 days
# Text: Social avoidance can be a critical and debilitating symptom in patients suffering from anxiety disorders, especially social anxiety disorder, as well as in patients suffering from traumatic anxiety disorders. Social avoidance is often one of the key determinants of whether a person with a severe anxiety disorder is capable of maintaining familial relationships or employment relationships. […] Negative symptoms of schizophrenia can be divided into two categories: emotional experience (e.g., emotional withdrawal, passive social withdrawal, active social avoidance) and emotional expression (e.g., blunted effect, poor rapport, lack of spontancity, and motor retardation). […] These are the symptoms that are most highly correlated with interpersonal functioning.
# [9] = test system: NMDA receptor currents in mPFC neurons; test: NMDA-induced currents in rat mPFC slices, whole-cell patch clamp; type: cell-based
# Text: as §1
# [10] = target: 5-HT2A (Homo sapiens (Human), UniProt P28223)
# [11] = 40-minute infusion, total dose 0.5 mg/kg; after 24 hours; cited from earlier work
# [12] = bath applied 3-100 nM, 5 min later
structure (smiles),measurement,setting,value
"O=C1CN2c3c(cccc3[C@@H]3CN(CCCOc4ccc(F)cc4)CC[C@@H]32)N1 [Example 1, (6bR,10aS)-8-(3-(4-fluorophenoxy)propyl)-6b,7,8,9,10,10a-hexahydro-1H-pyrido[3′,4′:4,5]pyrrolo[1,2,3-de]quinoxalin-2(3H)-one]",EC50 for reducing DOI-induced head twitches,[1],0.44 mg/kg
"CN1CCN2c3c(cccc31)[C@@H]1CN(CCCC(=O)c3ccc(F)cc3)CC[C@@H]12 [Formula A, lumateperone]",AMPA-induced currents compared to control,"[2]; 30 nM, alone and with SCH 23390 (1 μM)",Substantially the same results
same,AMPA currents,[2]; [12],enhanced
same,Ki,[3],0.049 µM
same,change in mTOR phosphorylation,[4],Neither ketamine nor the Compound of Formula A results in a change
same,increase in phosphorylation of AKT at thr308,[5],~50%
same,p70s6K phosphorylation,[6],progressively increases
same,"activation of mTORC1 signaling pathway in mPFC (p-Akt thr308, p-P70S6K)",[7],rapidly activates the mTORC1 signaling pathway
same,symptoms of emotional experience compared to placebo,[8],significant and unexpected improvement
same,NMDA-induced currents compared to control,[9]; 30 nM,~150%
same,NMDA currents,[9]; [12],enhanced
same,Ki,[10],0.01 µM
CNCCC(Oc1ccc(C(F)(F)F)cc1)c1ccccc1 (stereo not shown) [fluoxetine],activity at 0.1 µM,"[2]; Rattus norvegicus, Neuron, 100 nM fluoxetine, read-out: AMPA-induced current, % of control",~90%
CNC1(c2ccccc2Cl)CCCCC1=O (stereo not shown) [ketamine],change in mTOR phosphorylation,[4],Neither ketamine nor the Compound of Formula A results in a change
same,increase in phosphorylation of AKT at thr308,[5],~50%
same,p70s6K phosphorylation,[6],transiently increase
same,"activation of mTORC1 signaling pathway in mPFC (p-Akt thr308, p-P70S6K)",[7],rapidly activates the mTORC1 signaling pathway
same,ratings on the Hamilton Depression Rating Scale (HDRS) compared to placebo,[11],significantly improved
Cc1cc2c(s1)Nc1ccccc1N=C2N1CCN(C)CC1 [olanzapine],activity at 0.003 µM,"[2]; Rattus norvegicus, Neuron, 3 nM olanzapine alone, read-out: AMPA-induced current, % of control",~100%
